Laboratory results as given in ChEMBL document CHEMBL3430912, “GSK Tres Cantos Anti-Kinetoplastid Screening (TCAKS) Data”.

Columns and labels:
[1] = biological target: Sterol 14-alpha demethylase (Trypanosoma cruzi (strain CL Brener), UniProt Q7Z1V1); assay: GSK_TCAKS: pIC50 CYP51 from Trypanosoma cruzi.; assay type: functional
[2] = GSK_TCAKS: pIC50 HepG2 human cell line viability assay using luminiscence. […] Seeding density was checked to ensure that new mono-layers were not more than 50% confluent at the time of harvesting. Cell suspension was added to 500 mL of the same medium at a final density of 1.2 * 10^5 cells/mL. This cell suspension was dispensed (25 uL, 3000 cells per well) into 384-well clear-bottom plates using a Multidrop Combi dispenser. Prior to addition of the cell suspension, the screening compounds (250 nL) were pre-dispensed into the plates with an Echo liquid handler. Plates were incubated for 48 h at 37C, 5% CO2. After incubation, plates equilibrated at room temperature for 30 min before proceeding to develop the luminescent signal. The signal developer, CellTiter-Glo Reagent, was allowed to equilibrate at room temperature for 30 min and added to the plates (25uL per well) using a Multidrop Combi dispenser. Plates were left for 10 min at room temperature for stabilization and then read using a ViewLux.; assay type: toxicity, cell-based
Leishmania donovani [3] = assay: GSK_TCAKS: pIC50 Leishmania donovani viability assay using fluorescence intensity. Assay plates (1536-well) were prepared by adding 30nL per well of compound. For single shot assay, the final compound concentration was 5uM. […] Briefly, eGFP LdBOB axenic amastigotes were harvested, fixed and counted in a CASY cell counter (Roche-Applied Science). A final concentration of 1.5 * 10^5 cells per well were prepared in amastigote media containing 500 U/mL penicillin/streptomycin (Invitrogen) and 6uL was dispensed to each experimental well using a Multidrop Combi dispenser (Thermo Scientific). 6uL of assay media was dispensed to control columns used as reference for 100% compound response. Following incubation for 72 h at 37C, 5% CO2, 2 uL of resazurin was added to each well at a final concentration of 0.5 mM in phosphate buffered saline (PBS) with IGEPAL (Sigma-Aldrich), 0.05% (v/v).; assay type: functional, organism-based
Leishmania donovani [4] = assay: GSK_TCAKS: pIC50 Leishmania donovani Imaging: Amastigotes/Macrophages. Assay plates (384-well) were prepared by adding 250nL of compound to each well. For single shot assay, the final compound concentration was 5 uM. […] Automated image analysis was performed with a script developed on Acapella High Content Imaging and Analysis Software (PerkinElmer). Output: Average number of amastigotes per macrophage cell were reported for each well.; assay type: functional, organism-based, Homo sapiens; conditions: THP-1
[5] = tested on: Trypanosoma brucei brucei; assay: GSK_TCAKS: pIC50 Trypanosoma brucei viability assay using fluorescence intensity. Assay plates (1536-well) were prepared by dispensing 25nL of compound solution per well using an Echo acoustic dispenser (Labcyte).; assay type: functional, organism-based; conditions: Lister 427, 2 h
Trypanosoma cruzi [6] = assay: GSK_TCAKS: pIC50 Trypanosoma cruzi viability assay using beta-GAL activity. This assay was run at single shot at 5uM compound concentration per well. The biological reagents consisted of NIH-3T3 host cells and trypomastigotes parasitic cells; both cell types were set to a 3.3 * 10^5 cells/mL dilution in assay DMEM by means of a CASY cell counter device using a 60um capillary. 6 uL of the mixture were dispensed per well (about 1 * 10^3 host-cells and 1 * 10^3 parasites) with a Multidrop Combi dispenser. […] In all wells, the percentage of DMSO never exceeded 0.5%. Plates incubated for four days at 37C, 5% CO2. The substrate used for the assay fluorescence intensity (FLINT) readout was resorufin-beta-D-galactopiranoside (Sigma-Aldrich) at 5uM per well. It was diluted in PBS supplemented with the soft detergent Igepal (Fluka).; assay type: functional, organism-based, Mus musculus; conditions: Tulahuen, NIH3T3
Trypanosoma cruzi [7] = assay: GSK_TCAKS: pIC50 Trypanosoma cruzi Imaging: Amastigotes/Cell. […] Cells were then washed once with PBS before infection. T. cruzi trypomastigotes, collected at days 5 to 8 after infection from LLC-MK2 parasite infected cultures, were allowed to swim out for 4h at 37C from a centrifuged pellet (2,500 rpm/10 min/room temperature). Trypomastigotes were then collected and counted in a CASY Cell Counter. Trypomastigotes, in supplemented DMEM, were added to H9c2 cultures in a multiplicity of infection of 1 and incubated for 18 h. Cells were washed once with PBS before incubation of the infected H9c2 monolayer with trypsin (Life-Technologies) to detach cells from the flask. Cells were counted in a CASY Cell Counter using a 150 um capillary and their density set at 5 * 10^4 cells per mL in supplemented assay DMEM. Infected H9c2 were dispensed into 384-well poly-lysine coated assay plates at 50uL per well using a Multidrop Combi dispenser. After seeding them, the plates were incubated at 37C, 5% CO2 for 72h. Cultures were then fixed and stained by addition of 50 uL of a solution containing 8% formaldehyde and 4 uM DRAQ5 DNA dye (BioStatus, UK) per well. […] Five images were collected per well for reliable statistical analysis. Automated image analysis was performed with a script developed on Acapella High Content Imaging and Analysis Software (PerkinElmer). Output: number of amastigotes per cell as infection level measurement.; assay type: functional, organism-based, Rattus norvegicus; conditions: H9c2, 4 h
Trypanosoma cruzi [8] = assay: (§1) GSK_TCAKS: pIC50 Trypanosoma cruzi Imaging: Infected Cells. […] Cells were then washed once with PBS before infection. T. cruzi trypomastigotes, collected at days 5 to 8 after infection from LLC-MK2 parasite infected cultures, were allowed to swim out for 4h at 37C from a centrifuged pellet (2,500 rpm/10 min/room temperature). Trypomastigotes were then collected and counted in a CASY Cell Counter. Trypomastigotes, in supplemented DMEM, were added to H9c2 cultures in a multiplicity of infection of 1 and incubated for 18 h. Cells were washed once with PBS before incubation of the infected H9c2 monolayer with trypsin (Life-Technologies) to detach cells from the flask. Cells were counted in a CASY Cell Counter using a 150 um capillary and their density set at 5 * 10^4 cells per mL in supplemented assay DMEM. Infected H9c2 were dispensed into 384-well poly-lysine coated assay plates at 50uL per well using a Multidrop Combi dispenser. After seeding them, the plates were incubated at 37C, 5% CO2 for 72h. Cultures were then fixed and stained by addition of 50 uL of a solution containing 8% formaldehyde and 4 uM DRAQ5 DNA dye (BioStatus, UK) per well. […] Five images were collected per well for reliable statistical analysis. Automated image analysis was performed with a script developed on Acapella High Content Imaging and Analysis Software (PerkinElmer). Output: percentage of infected cells per well as a second infection marker.; assay type: functional, organism-based, Rattus norvegicus; conditions: H9c2, 4 h
[9] = tested on: Trypanosoma brucei brucei; assay: GSK_TCAKS: pIC50 Trypanosoma brucei viability assay using luminiscence. Assay plates (1536-well) were prepared. T. brucei cultures were harvested and counted in a CASY cell counter. A parasite suspension was prepared at a final concentration of 5 * 10^4 cells/mL in complete HMI9 medium and 6uL was dispensed to all wells containing compounds using a Multidrop Combi dispenser. 6uL of HMI9 media with 0.4% DMSO were dispensed to control columns. Plates were incubated for 24 h at 37C, 5% CO2 then tempered for 10 min at room temperature. ATP content was quantified by adding 4 uL of CellTiter-Glo Reagent (Promega) according to the manufacturer's instructions. Luminescence was measured using a ViewLux.; assay type: functional, organism-based; conditions: Lister 427, CASY
Leishmania donovani [10] = assay: GSK_TCAKS: pIC50 Leishmania donovani Imaging: Infected Macrophages. Assay plates (384-well) were prepared by adding 250nL of compound to each well. For single shot assay, the final compound concentration was 5 uM. […] Automated image analysis was performed with a script developed on Acapella High Content Imaging and Analysis Software (PerkinElmer). Output: Percent of infected macrophage cells were reported for each well.; assay type: functional, organism-based, Homo sapiens; conditions: THP-1
Trypanosoma cruzi [11] = assay: as §1, with “H2C9” for “Trypanosoma cruzi”, “H9c2 Host Cardiomyocytes.” for “Infected Cells.”, “Number” for “percentage”, “H9c2 Host Cardiomyocytes nuclei to determine drug-related cytotoxicity.” for “infected cells per well as a second infection marker.”; assay type: functional, organism-based, Rattus norvegicus; conditions: H9c2, 4 h
Leishmania donovani [12] = assay: GSK_TCAKS: pIC50 Leishmania donovani Imaging: THP-1 Host Macrophages. Assay plates (384-well) were prepared by adding 250nL of compound to each well. For single shot assay, the final compound concentration was 5 uM. […] Automated image analysis was performed with a script developed on Acapella High Content Imaging and Analysis Software (PerkinElmer). Output: THP-1 cell count were reported for each well.; assay type: functional, organism-based, Homo sapiens

Sequence of Sterol 14-alpha demethylase (Q7Z1V1 whole entry): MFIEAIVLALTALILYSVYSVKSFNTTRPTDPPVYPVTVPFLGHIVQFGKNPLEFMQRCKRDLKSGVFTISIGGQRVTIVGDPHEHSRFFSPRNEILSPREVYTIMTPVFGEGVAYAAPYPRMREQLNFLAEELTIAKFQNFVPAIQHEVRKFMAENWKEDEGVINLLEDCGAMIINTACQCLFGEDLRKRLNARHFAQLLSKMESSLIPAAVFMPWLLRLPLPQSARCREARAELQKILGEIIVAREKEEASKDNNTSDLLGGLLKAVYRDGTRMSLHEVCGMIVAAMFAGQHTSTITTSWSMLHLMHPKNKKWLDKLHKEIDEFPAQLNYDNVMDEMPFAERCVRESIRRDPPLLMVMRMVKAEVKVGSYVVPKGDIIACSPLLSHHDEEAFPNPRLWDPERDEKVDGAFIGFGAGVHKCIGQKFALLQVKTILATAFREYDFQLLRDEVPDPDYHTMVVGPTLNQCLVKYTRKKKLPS

Structure (SMILES) | IC50 [1] | IC50 at 48 h [2] | IC50 (Leishmania donovani [3]) | IC50 (Leishmania donovani [4]) | IC50 [5] | IC50 (Trypanosoma cruzi [6]) | IC50 (Trypanosoma cruzi [7]) | IC50 (Trypanosoma cruzi [8]) | IC50 [9] | IC50 (Leishmania donovani [10]) | IC50 (Trypanosoma cruzi [11]) | IC50 (Leishmania donovani [12])
COc1ccc(-c2cnc(C)o2)cc1S(=O)(=O)Nc1ccc(C)cc1C | 25.1 µM | > 100 µM | 3.98 µM | 2.51 µM | 6.31 µM | 2.82 µM | 3.16 µM | 3.16 µM | 31.6 µM | 3.16 µM | > 50.1 µM | > 50.1 µM
N#Cc1ccccc1S(=O)(=O)N1CCN(C(=O)CNC(=O)c2ccc3c(c2)OCO3)CC1 | 79.4 µM | > 100 µM | 0.631 µM | 1.58 µM | > 39.8 µM | 15.8 µM | 0.631 µM | 1 µM | > 39.8 µM | 5.01 µM | > 50.1 µM | > 50.1 µM
CS(=O)(=O)c1ccc(Nc2nccc(Nc3n[nH]c4ccc(F)cc34)n2)c(F)c1 | 39.8 µM | 79.4 µM | 12.6 µM | 10 µM | 0.501 µM | 7.94 µM | 3.98 µM | 31.6 µM | 0.794 µM | 12.6 µM | 15.8 µM | 15.8 µM
O=C(CSc1nnc(-c2ccc3c(c2)OCO3)o1)N(Cc1ccco1)CC(F)(F)F | 25.1 µM | > 100 µM | 15.8 µM | 3.16 µM | > 39.8 µM | 10 µM | 2.51 µM | 3.16 µM | > 39.8 µM | 7.94 µM | > 50.1 µM | > 50.1 µM
Nc1nccc(-c2csc(Nc3ccc(Cl)cc3)n2)n1 | 1.26 µM | > 100 µM | 3.98 µM | 1 µM | > 39.8 µM | 1.26 µM | > 50.1 µM | > 50.1 µM | > 39.8 µM | 1 µM | 2 µM | > 50.1 µM
COc1cnc2ccc(=O)n(CCN3CCC(NC(=O)c4ccc(Cl)cc4)CC3)c2c1 | 10 µM | > 100 µM | 2 µM | 3.98 µM | 0.0794 µM | 0.126 µM | 0.0794 µM | 0.251 µM | 0.1 µM | > 50.1 µM | 0.631 µM | > 50.1 µM
O=[N+]([O-])c1ccc(-c2nnn(-c3ccc(Cl)cc3)n2)o1 | > 100 µM | > 100 µM | 6.31 µM | > 50.1 µM | 0.316 µM | 0.251 µM | 0.0794 µM | 0.794 µM | 1 µM | > 50.1 µM | 10 µM | > 50.1 µM
Cc1ccc(NC(=O)c2ccnc(N3CCCC3)c2)cc1-c1ccsc1C(N)=O | 1.26 µM | > 100 µM | > 50.1 µM | > 50.1 µM | 0.0631 µM | 12.6 µM | 7.94 µM | 12.6 µM | 0.0631 µM | > 50.1 µM | > 50.1 µM | > 50.1 µM
Cc1nn2c(=O)c3c([nH]c2c1-c1ccc(Br)cc1)CCCC3 | > 100 µM | > 100 µM | 10 µM | 39.8 µM | 0.398 µM | 1 µM | 0.794 µM | 1.58 µM | 0.794 µM | > 50.1 µM | > 50.1 µM | > 50.1 µM
O=C(CN(Cc1ccccn1)Cc1ccccn1)NCc1ccc2c(c1)OCO2 | 100 µM | > 158 µM | 12.6 µM | 6.31 µM | 6.31 µM | 7.94 µM | 6.31 µM | 12.6 µM | 20 µM | 7.94 µM | > 79.4 µM | > 79.4 µM
CN(C)c1ccc(N)cc1CN(CC1CCCO1)S(C)(=O)=O (configuration not stated) | > 100 µM | > 100 µM | 3.98 µM | 10 µM | > 39.8 µM | > 50.1 µM | > 50.1 µM | > 50.1 µM | > 39.8 µM | 12.6 µM | > 50.1 µM | > 50.1 µM
